In patent US20250084074A1, “SUBSTITUTED HETEROCYCLES AS HSET INHIBITORS” (MERCK PATENT GMBH, priority 2022, published 2025):

Target: HSET full length protein (Homo sapiens (Human), UniProt Q9BW19)
Assay: HSET ADP-Glo Assay S - 3 μM ATP
Format: biochemical
Settings: 5 nM HSET, 70 μg/mL microtubule, 80 min at rt, read-out: COMBINED HSET ADP GLO IC50
Experimental: Example 281: Testing compounds of the present invention for inhibitory activities against HSET—HSET ADP-Glo Assay S—3 μM ATP
Reagents: (+4° C. Storage) • Paclitaxel Prod.No.TXD.01 2 mM in DMSO (from Universal Biologicals Cambridge). • Tubulin Protein (Pre-formed Microtubules): Bovine Brain Prod.No.MT001-XL Lot.025 10 mg/mL (from Universal Biologicals Cambridge).
Reagents: (−80° C. Storage) • MT001-XL—Tubulin Protein (Pre-formed Microtubules): Bovine Brain—reconstituted in buffer—15 mM PIPES pH7, 1 mM MgCl2, 20 μM paclitaxel (aliquots at 10 mg/mL) from Universal Biologicals Cambridge. • HSET full length protein—Current batch is FL HSET Prep1 (SEQ-000096_002-01_01) • Buffer is 20 mM Hepes pH 7.5, 200 mM NaCl, 2 mM TCEP, 5% glycerol (5 μL aliquots at 10.2 μM)
Reagents: (−20° C. Storage) • ADP-Glo Kinase Assay kit (Promega Prod.No.V9102) 10,000 assay points • ADP-Glo reagent (50 mL), Kinase Detection Reagent (100 mL), and Ultrapure ATP (10 mM) aliquoted
Buffer Stocks (filtered and stored at rt for up to 1 month) • HEPES acid, 4-(2-Hydroxyethyl)piperazine-1-ethanesulfonic acid MW:238, 238.3 mg/mL=1 M • 7149 mg/30 mL=1M (pH to 6.8 with 5 M NaOH) • PIPES, 1,4-Piperazinediethanesulfonic acid MW: 302.4, 30.24 mg/mL=100 mM; 907.2 mg/30 mL=100 mM (pH to 7 with 5 M NaOH, white cloudy suspension until the pH changes) • EGTA, Ethylene glycol-bis(2-aminoethylether)-N,N,N′,N′-tetraacetic acid MW: 380.35, 38.035 mg/mL=100 mM • 1901.75 mg/50 mL=100 mM (pH to ˜7 with 5 M NaOH)—takes a long time to get into solution and for pH to stabilize • Triton-X-100, MW: 625, 62.5 mg/mL=100 mM (6.25% w/v) (viscous, pipette Triton X-100 with a Gilson using a trimmed pipette tip)
ECHO Protocol • Create an ECHO intermediate plate by adding 24.5 μL DMSO to columns 1 & 2, and 40 μL DMSO to columns 23 & 24 of an ECHO 384PP plate • Add 100 nL of compound/DMSO per well in 384-well Proxi-Plate Plus (white) —Perkin Elmer Cat #6008289 using ECHO dose response protocol 100 nL normal to proxi_8pt_200 uM.
Assay buffer (Keep on ice): HEPES pH 6.8, MgCl2, EGTA, Triton X-100, DTT, HPLC H2O Microtubule Working Solution (3.2): • 1 ml PM buffer: PIPES pH 7.0, MgCl2, HPLC H2O, Paclitaxel, mix well, store at rt • Then add 26.4 μL of 10 mg/ml microtubules to 724 μL of the above PM buffer to make 750 μL of microtubule working solution @350 μg/mL microtubules (store at rt)
Stock HSET enzyme solution (3.1)—keep on ice • Add 1.33 μL 10.2 μM HSET Prepi (SEQ-000096_002-01_01) to 1358 μL assay buffer to make a 10 nM stock for a 5 nM final assay concentration (1/1020 dilution).
HSET/Microtubule working solution (3.3) • Mix solutions 3.1 and 3.2 in the ratio of 2.5:1 (1214.3 μL 3.1+485.7 μL 3.2) keep at rt for 15 min • 3.2 is diluted 3.5-fold, 3.1 is diluted 1.4-fold BLANK solution is 357 μL 2XAB+143 μL microtubule working solution 3.2. (Same proportions as HSET/Microtubule working solution (3.3))
ATP Working solution is 1 μL 10 mM UltraPure ATP (Promega kit)+999 μL ddH20 gives 10 μM ATP for a 3 μM final assay concentration, stored on ice.
Assay procedure in PROXIPLATE 384 PLUS WHITE (Perkin Elmer) plates (Remove 2.4 mL ADP Glo and 4.5 mL Kinase detection reagent from freezer to warm up to rt) • Add 3.5 μL BLANK solution to assay plate (column 12) • Add 3.5 μL HSET/Microtubule solution (3.3) (columns 1-11 & 13-24) • Centrifuge at 1000 rpm for 1 min • (pre-incubate enzyme and compound for 10 min)
Add 1.5 μL of 10 μM ATP to start reaction gives a final [HSET] of 5 nM, [ATP] of 3 μM and [microtubule] of 70 μg/mL, centrifuge at 1000 rpm for 1 min and incubated at rt for 80 min.
After the 80-minute incubation, stop reaction by adding 5 μL ADP-Glo reagent to all wells. Centrifuge for 1 min at 1000 rpm, leave for 40 min at rt.
In the dark/away from direct light, add 10 μL Kinase Detection Reagent (KDR) to all wells, Seal plate with a Topseal (Perkin Elmer Cat #6050185) and centrifuge as above, leave for 40 min at rt covered in foil. […]

Chain of HSET full length protein (Q9BW19 whole entry): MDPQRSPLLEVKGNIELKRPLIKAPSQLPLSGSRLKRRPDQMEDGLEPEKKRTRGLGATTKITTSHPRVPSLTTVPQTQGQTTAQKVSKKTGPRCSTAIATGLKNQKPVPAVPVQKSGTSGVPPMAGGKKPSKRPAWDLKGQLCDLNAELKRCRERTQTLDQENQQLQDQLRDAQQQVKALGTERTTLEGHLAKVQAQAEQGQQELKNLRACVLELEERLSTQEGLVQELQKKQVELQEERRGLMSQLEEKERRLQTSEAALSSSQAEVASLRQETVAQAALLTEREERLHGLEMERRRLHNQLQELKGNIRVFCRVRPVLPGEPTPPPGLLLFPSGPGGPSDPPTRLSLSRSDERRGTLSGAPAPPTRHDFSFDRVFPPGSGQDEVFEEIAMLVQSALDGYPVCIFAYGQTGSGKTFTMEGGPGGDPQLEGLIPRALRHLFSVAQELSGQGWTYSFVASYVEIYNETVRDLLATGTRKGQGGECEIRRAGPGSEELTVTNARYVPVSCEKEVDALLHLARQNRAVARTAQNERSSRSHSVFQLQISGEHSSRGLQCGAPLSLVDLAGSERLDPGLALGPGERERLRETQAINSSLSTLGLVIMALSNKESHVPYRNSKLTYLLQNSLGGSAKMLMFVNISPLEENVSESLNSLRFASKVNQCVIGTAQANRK

Row | IC50 [µM] | Compound
1 | 0.146 | CCOC(=O)c1sc(NC(=O)CCNC(=O)c2cccc(-c3ncon3)c2)nc1C [Example 23, Ethyl 2-(3-(3-(1,2,4-oxadiazol-3-yl)benzamido)propanamido)-4-methylthiazole-5-carboxylate]
2 | 0.055 | CCOC(=O)c1sc(NC(=O)CCNC(=O)c2cc(Cl)cc(-c3noc(C)n3)c2)nc1C [Example 24, Ethyl 2-(3-(3-chloro-5-(5-methyl-1,2,4-oxadiazol-3-yl)benzamido)-propanamido)-4-methylthiazole-5-carboxylate]
3 | 0.013 | CCCOC(=O)c1sc(NC(=O)CCNC(=O)c2cc(Cl)cc(-c3noc(C)n3)c2)nc1C [Example 25, Propyl 2-(3-(3-chloro-5-(5-methyl-1,2,4-oxadiazol-3-yl)benzamido)propanamido)-4-methylthiazole-5-carboxylate]
4 | 0.013 | CCCOC(=O)c1sc(NC(=O)CCNC(=O)c2cc(C)cc(-c3noc(C)n3)c2)nc1C [Example 26, Propyl 4-methyl-2-(3-(3-methyl-5-(5-methyl-1,2,4-oxadiazol-3-yl)benzamido)propanamido)thiazole-5-carboxylate]
5 | 0.116 | CCCOC(=O)c1cc(NC(=O)CCNC(=O)c2cc(C)cc(-c3noc(C)n3)c2)nn1C [Example 27, Propyl 1-methyl-3-(3-(3-methyl-5-(5-methyl-1,2,4-oxadiazol-3-yl)benzamido)propanamido)-1 H-pyrazole-5-carboxylate]
6 | 2.24 | CCCOC(=O)c1sc(NC(=O)CCNC(=O)c2cc(C#N)cc(C(F)(F)F)c2)nc1C [Example 28, Propyl 2-(3-(3-cyano-5-(trifluoromethyl)benzamido)propanamido)-4-methylthiazole-5-carboxylate]
7 | 0.077 | CCCOC(=O)c1sc(NC(=O)CCNC(=O)c2cc(C(=O)OC)cc(C(C)(C)C)c2)nc1C [Example 29, Propyl 2-(3-(3-(tert-butyl)-5-(methoxycarbonyl)benzamido)propanamido)-4-methylthiazole-5-carboxylate]
8 | 0.186 | CCCOC(=O)c1sc(NC(=O)CCNC(=O)c2cc(C#N)cc(C(=O)OC)c2)nc1C [Example 30, Propyl 2-(3-(3-cyano-5-(methoxycarbonyl)benzamido)propanamido)-4-methylthiazole-5-carboxylate]
9 | 0.191 | Cc1nc(-c2cc(Cl)cc(C(=O)NCCC(=O)Nc3nc(C)c(C(C)(C)C)s3)c2)no1 [Example 31, N-[3-[(5-tert-butyl-4-methyl-thiazol-2-yl)amino]-3-oxo-propyl]-3-chloro-5-(5-methyl-1,2,4-oxadiazol-3-yl)benzamide]
10 | 0.011 | CCCOC(=O)c1sc(NC(=O)CCNC(=O)c2cc(-c3noc(C)n3)cc(C(F)(F)F)c2)nc1C [Example 32, Propyl 4-methyl-2-(3-(3-(5-methyl-1,2,4-oxadiazol-3-yl)-5-(trifluoromethyl)benzamido)propanamido)thiazole-5-carboxylate]
11 | 0.161 | CCCOC(=O)c1sc(NC(=O)CCNC(=O)c2cc(C(=O)OC)cc([N+](=O)[O-])c2)nc1C [Example 33, Propyl 2-[3-[(3-methoxycarbonyl-5-nitro-benzoyl)amino]propanoylamino]-4-methyl-thiazole-5-carboxylate]
12 | 0.101 | CCOC(=O)c1sc(NC(=O)CCNC(=O)c2cccc(-c3nc(C)no3)c2)nc1C [Example 34, Ethyl 4-methyl-2-(3-(3-(3-methyl-1,2,4-oxadiazol-5-yl)benzamido)propanamido)thiazole-5-carboxylate]
13 | 0.031 | Cc1nc(-c2cccc(C(=O)NCCC(=O)Nc3nc(C)c(C(=O)OCC4CC4)s3)c2)no1 [Example 35, Cyclopropylmethyl 4-methyl-2-(3-(3-(5-methyl-1,2,4-oxadiazol-3-yl)benzamido)propanamido)thiazole-5-carboxylate]
14 | 2.1 | CCOC(=O)c1sc(NC(=O)CCNC(=O)c2cccc(-c3noc(CC)n3)c2)nc1C [Example 36, Ethyl 2-(3-(3-(5-ethyl-1,2,4-oxadiazol-3-yl)benzamido)propanamido)-4-methylthiazole-5-carboxylate]
15 | 0.26 | CCOC(=O)c1sc(NC(=O)CCNC(=O)c2cccc(-c3nnc(C)o3)c2)nc1C [Example 37, Ethyl 4-methyl-2-(3-(3-(5-methyl-1,3,4-oxadiazol-2-yl)benzamido)propanamido)thiazole-5-carboxylate]
16 | 0.027 | CCOC(=O)c1sc(NC(=O)CCNC(=O)c2cccc(-c3nnn(C)n3)c2)nc1C [Example 38, Ethyl 4-methyl-2-(3-(3-(2-methyl-2H-tetrazol-5-yl)benzamido)propanamido)thiazole-5-carboxylate]
17 | 0.008 | Cc1nc(NC(=O)CCNC(=O)c2cccc(-c3nnn(C)n3)c2)sc1C(=O)OC(C)(C)C [Example 39, tert-Butyl 4-methyl-2-[3-[[3-(2-methyltetrazol-5-yl)benzoyl]amino]propanoylamino]thiazole-5-carboxylate]
18 | 0.01 | Cc1nc(NC(=O)CCNC(=O)c2cccc(-c3nnn(C)n3)c2)sc1C(=O)OC(C)C [Example 40, Isopropyl 4-methyl-2-[3-[[3-(2-methyltetrazol-5-yl)benzoyl]amino]propanoylamino]thiazole-5-carboxylate]
19 | 0.184 | Cc1nc(NC(=O)CCNC(=O)c2cccc(-c3nnn(C)n3)c2)sc1C(C)(C)C [Example 41, N-[3-[(5-tert-butyl-4-methyl-thiazol-2-yl)amino]-3-oxo-propyl]-3-(2-methyltetrazol-5-yl)benzamide]
20 | 1.79 | CCOC(=O)c1cccc(C(=O)NCCC(=O)Nc2nc(C)c(C(=O)OCC)s2)c1 [Example 42, Ethyl 2-(3-(3-(ethoxycarbonyl)benzamido)propanamido)-4-methylthiazole-5-carboxylate]
21 | 0.044 | CCOC(=O)c1sc(NC(=O)CCNC(=O)c2cc(C)cc(-c3noc(C)n3)c2)nc1C [Example 43, Ethyl 4-methyl-2-(3-(3-methyl-5-(5-methyl-1,2,4-oxadiazol-3-yl)benzamido)propanamido)thiazole-5-carboxylate]
22 | 0.281 | CCCOC(=O)c1sc(NC(=O)CCNC(=O)c2cc(C(=O)OC)cc(-c3noc(C)n3)c2)nc1C [Example 44, Propyl 2-(3-(3-(methoxycarbonyl)-5-(5-methyl-1,2,4-oxadiazol-3-yl)benzamido)propanamido)-4-methylthiazole-5-carboxylate]
23 | 0.005 | CCOC(=O)c1sc(NC(=O)CCNc2nccc3ccc(-c4noc(C)n4)cc23)nc1C [Example 45, Ethyl 4-methyl-2-[3-[[7-(5-methyl-1,2,4-oxadiazol-3-yl)-1-isoquinolyl]amino]propanoylamino]thiazole-5-carboxylate]
